System: normotensive albino New Zealand rabbits
Experiment: Study of effect on intraocular pressure (IOP)
Format: in vivo, rabbit
Settings: intra-cameral administration, dexamethasone 0.1% (positive control)
Description: Control samples: • Positive control: dexamethasone 0.1%. • Negative control: 0.9% sodium chloride saline solution Material and Method • The laboratory animals used were normotensive albino New Zealand rabbits. The rabbits were adapted to periods of light/dark (12/12 hours) needed to adjust and maintain stable the diurnal cycle of the intraocular pressure (IOP). • Rabbits were distributed in different groups: the positive control group (positive control sample), the negative control group (negative control sample) and two test groups (two test samples). • The treatment involved the injection of dexamethasone into the anterior chamber, meanwhile for the rest of groups; each animal was topically instilled, in each eye with the control sample or the test composition 4 times a day for 15 days. • Measurement of IOP of the groups was performed twice a day. After the instillation in each animal, it was observed the possibility of adverse effects of the respective compound on the ocular surface. Results

- elevation of the intraocular pressure: statistically significant elevation
Compound: C[C@@H]1C[C@H]2[C@@H]3CCC4=CC(=O)C=C[C@]4(C)[C@@]3(F)[C@@H](O)C[C@]2(C)[C@@]1(O)C(=O)CO [dexamethasone]

Source: patent US10857160B2, “Oil-in-water nanoemulsion composition of clobetasol” (LABORATORIOS SALVAT, S.A., priority 2017, dated 2020)
